For five molecules, IC50 results are on record in patent US10160755B2 (Plexxikon Inc., priority 2015, dated 2018).

The IC50 is the point on the concentration scale where inhibition reaches its midpoint.

Assay [1] addresses T1, FLT3-ITD (Homo sapiens, UniProt P36888).
T1 construct: FLT3-ITD; Invitrogen #PV6190
T1 sequence (P36888 1-993): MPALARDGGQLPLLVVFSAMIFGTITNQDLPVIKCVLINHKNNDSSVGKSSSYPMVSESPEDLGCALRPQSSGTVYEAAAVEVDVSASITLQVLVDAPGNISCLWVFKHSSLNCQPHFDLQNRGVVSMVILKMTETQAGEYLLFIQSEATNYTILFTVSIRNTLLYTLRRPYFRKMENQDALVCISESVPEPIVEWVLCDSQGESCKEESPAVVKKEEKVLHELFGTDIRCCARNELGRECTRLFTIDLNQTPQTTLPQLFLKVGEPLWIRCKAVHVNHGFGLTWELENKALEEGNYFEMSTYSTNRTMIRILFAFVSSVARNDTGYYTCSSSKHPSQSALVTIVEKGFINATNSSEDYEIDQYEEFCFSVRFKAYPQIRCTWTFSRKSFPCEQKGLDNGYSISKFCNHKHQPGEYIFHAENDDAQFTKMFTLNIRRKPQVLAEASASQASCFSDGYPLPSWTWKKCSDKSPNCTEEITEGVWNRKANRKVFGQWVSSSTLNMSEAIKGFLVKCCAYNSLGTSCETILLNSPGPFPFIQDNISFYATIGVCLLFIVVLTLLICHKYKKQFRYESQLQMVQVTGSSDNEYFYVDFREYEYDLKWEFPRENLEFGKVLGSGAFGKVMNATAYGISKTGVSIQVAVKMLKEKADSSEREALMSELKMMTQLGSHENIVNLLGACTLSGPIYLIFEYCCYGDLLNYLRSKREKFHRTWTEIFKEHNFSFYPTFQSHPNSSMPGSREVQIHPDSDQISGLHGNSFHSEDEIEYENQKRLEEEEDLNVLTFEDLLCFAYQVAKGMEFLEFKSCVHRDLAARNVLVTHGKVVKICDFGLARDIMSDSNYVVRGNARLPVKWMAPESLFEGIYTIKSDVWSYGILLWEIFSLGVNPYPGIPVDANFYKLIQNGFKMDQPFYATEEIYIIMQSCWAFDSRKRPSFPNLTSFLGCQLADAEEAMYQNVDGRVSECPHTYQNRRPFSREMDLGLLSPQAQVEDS
The assay can be described thus: FLT3-ITD biochemical kinase assay (AlphaScreen). In outline:
(§1)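 Recombinant FLT3 mutant kinases phosphorylate biotin-poly(Glu4-Tyr) peptide (30 nM) at 10 μM ATP for D835Y or 100 μM for ITD. Phosphorylation detected by AlphaScreen: streptavidin donor beads (20 min) then anti-phosphotyrosine PY20 acceptor beads (60 min, RT), signal at 580 nm; inhibition lowers signal.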
In general terms: Bead proximity is the source of the signal in Alpha formats.

The target in assay [2] is T2, FLT3-D835Y (Homo sapiens, UniProt P36888, D835Y).
T2 construct: purchased Invitrogen PV3967
T2 sequence (P36888 27-993 D835Y): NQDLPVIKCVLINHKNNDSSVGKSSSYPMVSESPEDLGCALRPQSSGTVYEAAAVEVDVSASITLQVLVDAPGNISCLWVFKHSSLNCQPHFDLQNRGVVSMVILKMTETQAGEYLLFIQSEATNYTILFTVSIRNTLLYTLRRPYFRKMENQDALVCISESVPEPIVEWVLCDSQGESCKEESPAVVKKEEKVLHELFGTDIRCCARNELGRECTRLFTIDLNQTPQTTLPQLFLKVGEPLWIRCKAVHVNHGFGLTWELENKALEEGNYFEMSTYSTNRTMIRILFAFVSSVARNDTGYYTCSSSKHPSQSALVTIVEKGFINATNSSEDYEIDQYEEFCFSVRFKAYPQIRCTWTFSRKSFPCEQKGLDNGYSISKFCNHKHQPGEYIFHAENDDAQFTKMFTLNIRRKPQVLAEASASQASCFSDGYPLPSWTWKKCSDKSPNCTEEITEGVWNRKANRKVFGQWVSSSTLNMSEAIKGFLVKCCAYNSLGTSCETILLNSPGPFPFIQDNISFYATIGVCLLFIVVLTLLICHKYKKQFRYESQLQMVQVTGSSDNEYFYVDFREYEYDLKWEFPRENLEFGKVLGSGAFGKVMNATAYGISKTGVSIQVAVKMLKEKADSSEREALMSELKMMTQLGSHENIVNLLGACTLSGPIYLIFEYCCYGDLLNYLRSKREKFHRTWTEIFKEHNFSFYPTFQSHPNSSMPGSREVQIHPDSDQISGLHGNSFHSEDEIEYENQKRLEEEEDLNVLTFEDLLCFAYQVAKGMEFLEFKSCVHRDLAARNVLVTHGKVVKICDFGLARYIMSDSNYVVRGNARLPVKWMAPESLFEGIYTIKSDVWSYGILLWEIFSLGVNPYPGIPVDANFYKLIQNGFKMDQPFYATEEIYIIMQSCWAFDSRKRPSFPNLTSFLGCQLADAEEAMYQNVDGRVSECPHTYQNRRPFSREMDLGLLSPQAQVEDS
As to the kind of experiment: FLT3-D835Y biochemical kinase assay (AlphaScreen). In outline:
as §1

As for `CCN1CCN(c2ccc(-c3cnc4[nH]cc(-c5ccc6ncn(C(C)(C)C)c6c5)c4n3)cn2)CC1` [P-365, 7-(3-tert-butylbenzimidazol-5-yl)-2-[6-(4-ethylpiperazin-1-yl)-3-pyridyl]-5H-pyrrolo[2,3-b]pyrazine], the IC50 in assay [1] and in assay [2] was 0.0001 to 1 µM throughout.

With `CC(C)(C)n1cnc2ccc(-c3c[nH]c4ncc(-c5ccnc(C#N)c5)cc34)cc21` [P-291, 4-[3-(3-tert-butylbenzimidazol-5-yl)-1H-pyrrolo[2,3-b]pyridin-5-yl]pyridine-2-carbonitrile], the 50% inhibitory concentration (IC50) in assay [1] and in assay [2] was 0.0001 to 1 µM throughout.

With `c1cc(-c2cnc3[nH]cc(-c4ccc5ncn(C6CCCNC6)c5c4)c3n2)cc(N2CCCCC2)c1` (stereo not shown) [P-337, 7-[3-(3-piperidyl)benzimidazol-5-yl]-2-[3-(1-piperidyl)phenyl]-5H-pyrrolo[2,3-b]pyrazine], the IC50 in assay [1] and in assay [2] was 0.0001 to 1 µM each time.

As to `CC(C)(C)n1cnc2ccc(-c3c[nH]c4ncc(-c5cccc(N6CCCS6(=O)=O)c5)cc34)cc21` [P-278, 2-[3-[3-(3-tert-butylbenzimidazol-5-yl)-1H-pyrrolo[2,3-b]pyridin-5-yl]phenyl]-1,2-thiazolidine 1,1-dioxide], the IC50 in assay [1] and in assay [2] was 0.0001 to 1 µM throughout.

Regarding `COc1cc(-c2cc3c(-c4ccc5ncn(C(C)(C)C)c5c4)c[nH]c3nn2)ccn1` [P-315, 5-(3-tert-butylbenzimidazol-5-yl)-3-(2-methoxy-4-pyridyl)-7H-pyrrolo[2,3-c]pyridazine], the IC50 in assay [1] and in assay [2] was 0.0001 to 1 µM throughout.
